From patent US20250018047A1, “METHODS AND COMPOSITIONS FOR TARGETED PROTEIN DEGRADATION” (Ranok Therapeutics (Hangzhou) Co. Ltd., priority 2021, published 2025)
Where a name gives a salt, the structure may show the parent alone.

Key:
[1] = molecular target: T1, KRAS(G12D)/SOS1 (Homo sapiens, UniProt P01116, G12D); experiment: KRAS(G12D)/SOS1 homogeneous time-resolved fluorescence (HTRF) assay; type: binding; conditions: absence of GTP, 4° C. for 3 hr
T1 construct: purchased Cisbio 63ADK000CB16PEG
Experimental: The test compound was mixed and incubated with reaction components, incubated in a sealed plate at 4° C. for 3 hr and fluorescence was measured using a PerkinElmer Envision plate reader.

[2] = molecular target: BA/F3-KRAS(G12D) murine pro-B cell line stably expressing KRAS(G12D) (Homo sapiens, UniProt P01116, G12D, cells depend on it); experiment: CellTiter-Glo cancer cell line proliferation assay, BA/F3-KRAS(G12D); type: cell-based; conditions: 24 hr, read-out: BAF3 at 24 hrs, IC50
Experimental: The following cancer cell lines were employed: AsPC-1 human pancreatic adenocarcinoma (ATCC, #CRL-1682); A-427 human lung carcinoma (ATCC, #HTB-53); BA/F3-KRAS(G12D) murine pro-B cell line stably expressing KRAS(G12D) (Precedo, Hefei, China). Cell lines were cultured according to ATCC and recommendations. BA/F3-KRAS(G12D) cells were cultured in RPMI 1640 media with 10% fetal calf serum, 100 units/mL penicillin and […] streptomycin, and 1% glutamine.
(§1) CellTiter-Glo® Reagent Cancer Cell Line Proliferation Assays
(§2) Cells were plated in 96-well tissue culture plates at 4,000 cells/well and incubated at 37° C./5% CO2 for 24 hr in 100 μl of media. 3-fold serial dilutions of each test compound were prepared ranging from 20 μM to 1.02 nM. Cells were then treated with test compounds at various concentrations with a final concentration of 0.5% DMSO/well, and then incubated at 37° C./5% CO2 for 24 hr. 100 μl of CellTiter-Glo® Reagent (Promega Corporation, Madison, WI) was added to each well and processed according manufacturer's protocol. Results were analyzed and IC50-values were calculated in GraphPad 7 software.

[3] = tested on: A-427 human lung carcinoma; experiment: CellTiter-Glo cancer cell line proliferation assay, A-427; type: cell-based; conditions: Homo sapiens, A-427, 24 hr, read-out: A427 at 24 hrs, IC50
Experimental: (§3) Cell lines were cultured according to ATCC and recommendations.
as §1
as §2, with “3-fold serial dilutions of each test compound were prepared ranging from 20 μM to 1.02 nM.” left out

[4] = molecular target: T2, KRAS(G12D) (Homo sapiens, UniProt P01116, G12D); experiment: SW1990 WB assay (degradation DC50, Dmax); type: cell-based; conditions: Western blot, SW1990 cells
T2 construct: endogenous in cells; host or cells: SW1990

[5] = tested on: AsPC-1 human pancreatic adenocarcinoma; experiment: CellTiter-Glo cancer cell line proliferation assay, AsPC-1; type: cell-based; conditions: Homo sapiens, ASPC1, 24 hr
Experimental: as §3, §1
as §2, with “3-fold serial dilutions of each test compound were prepared ranging from 20 μM to 1.02 nM.” left out

T1 sequence (P01116 1-188 isoform P01116-2 G12D): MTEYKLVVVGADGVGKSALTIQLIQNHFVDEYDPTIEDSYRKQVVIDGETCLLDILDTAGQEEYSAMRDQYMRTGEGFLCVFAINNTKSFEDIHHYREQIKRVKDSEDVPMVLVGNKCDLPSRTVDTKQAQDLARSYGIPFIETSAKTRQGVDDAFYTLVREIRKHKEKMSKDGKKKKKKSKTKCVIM
T2 sequence (P01116 1-188 isoform P01116-2 G12D): as above
Sequence of BA/F3-KRAS(G12D) murine pro-B cell line stably expressing KRAS(G12D) (P01116 whole entry G12D): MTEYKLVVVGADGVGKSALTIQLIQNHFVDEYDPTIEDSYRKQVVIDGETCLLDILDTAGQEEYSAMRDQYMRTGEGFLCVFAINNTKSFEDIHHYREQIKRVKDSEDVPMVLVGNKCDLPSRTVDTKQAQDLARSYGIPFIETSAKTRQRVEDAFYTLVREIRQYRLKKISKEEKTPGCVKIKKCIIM

Row | SMILES | IC50 [1] | GI50 [2] | IC50 [3] | DC50 [4] | Dmax [4] | IC50 [5]
1 | Cc1ncsc1-c1ccc(CNC(=O)C2CC(O)CN2C(=O)C(NC(=O)C2CCN([C@H]3C[C@@H](COc4nc(N5CC6CCC(C5)N6)c5cnc(-c6cccc7cccc(Cl)c67)cc5n4)N(C)C3)CC2)C(C)(C)C)cc1 (stereo in doubt) [Compound 20, 1-[(3S,5S)-5-({[7-(8-chloronaphthalen-1-yl)-4-{3,8-diazabicyclo[3.2.1]octan-3-yl}pyrido[4,3-d]pyrimidin-2-yl]oxy}methyl)-1-methylpyrrolidin-3-yl]-N-[(2S)-1-[(2 S,4R)-4-hydroxy-2-({[4-(4-methyl-1,3-thiazol-5-yl)phenyl]methyl}carbamoyl)pyrrolidin-1-yl]-3,3-dimethyl-1-oxobutan-2-yl]piperidine-4-carboxamide] | > 1000 nM | > 1000 nM | – | – | – | –
2 | C#Cc1cccc2cccc(-c3ncc4c(N5CC6CCC(C5)N6)nc(OCCN5CCN(CC6CCN(c7ccc8c(c7)C(=O)N(C7CCC(=O)NC7=O)C8=O)CC6)CC5)nc4c3F)c12 (stereo not drawn) [Compound 1, 5-(4-((4-(2-((4-(3,8-diazabicyclo[3.2.1]octan-3-yl)-7-(8-ethynylnaphthalen-1-yl)-8-fluoropyrido[4,3-d]pyrimidin-2-yl)oxy)ethyl)piperazin-1-yl)methyl)piperidin-1-yl)-2-(2,6-dioxopiperidin-3-yl)isoindoline-1,3-dione hydrochloride] | 100 to 1000 nM | > 1000 nM | > 1000 nM | – | – | –
3 | C#Cc1cccc2cccc(-c3ncc4c(N5CC6CCC(C5)N6)nc(OCCC5CCN(CC6CCN(c7cccc8c7C(=O)N(C7CCC(=O)NC7=O)C8=O)CC6)CC5)nc4c3F)c12 (stereo not drawn) [Compound 3, 4-(4-((4-(2-((4-(3,8-diazabicyclo[3.2.1]octan-3-yl)-7-(8-ethynylnaphthalen-1-yl)-8-fluoropyrido[4,3-d]pyrimidin-2-yl)oxy)ethyl)piperidin-1-yl)methyl)piperidin-1-yl)-2-(2,6-dioxopiperidin-3-yl)isoindoline-1,3-dione hydrochloride] | < 100 nM | 100 to 1000 nM | > 1000 nM | – | – | –
4 | C#Cc1cccc2cccc(-c3ncc4c(N5CC6CCC(C5)N6)nc(OCCN5CCN(C(=O)C6CCN(c7ccc8c(c7)C(=O)N(C7CCC(=O)NC7=O)C8=O)CC6)CC5)nc4c3F)c12 (stereo not drawn) [Compound 4, 5-(4-(4-(2-((4-(3,8-diazabicyclo[3.2.1]octan-3-yl)-7-(8-ethynylnaphthalen-1-yl)-8-fluoropyrido[4,3-d]pyrimidin-2-yl)oxy)ethyl)piperazine-1-carbonyl)piperidin-1-yl)-2-(2,6-dioxopiperidin-3-yl)isoindoline-1,3-dione formate] | > 1000 nM | > 1000 nM | > 1000 nM | – | – | –
5 | C#Cc1cccc2cccc(-c3ncc4c(N5CC6CCC(C5)N6)nc(OC[C@@H]5CC[C@H](CN6CCN(Cc7ccc8c(c7)C(=O)N(C7CCC(=O)NC7=O)C8=O)CC6)N5C)nc4c3F)c12 (stereo partly drawn) [Compound 15, 5-((4-(((2R,5S)-5-(((4-(3,8-diazabicyclo[3.2.1]octan-3-yl)-7-(8-ethynylnaphthalen-1-yl)-8-fluoropyrido[4,3-d]pyrimidin-2-yl)oxy)methyl)-1-methylpyrrolidin-2-yl)methyl)piperazin-1-yl)methyl)-2-(2,6-dioxopiperidin-3-yl)isoindoline-1,3-dione formate] | < 100 nM | > 1000 nM | > 1000 nM | – | – | –
6 | C#Cc1cccc2cc(O)cc(-c3nc(OC)c4c(N5CC6CCC(C5)N6)nc(OCC5(CN6CCN(CC7CCN(c8ccc9c(c8)CN(C8CCC(=O)NC8=O)C9=O)CC7)CC6)CC5)nc4c3F)c12 (stereo not drawn) [Compound 78] | < 100 nM | – | < 100 nM | < 100 nM | > 50% | < 100 nM
7 | C#Cc1cccc2cc(O)cc(-c3ncc4c(N5CC6CCC(C5)N6)nc(OCC5(CN6CCN(CC7CCN(c8ccc9c(c8)CN(C)C9=O)CC7)CC6)CC5)nc4c3F)c12 [Compound 81] | < 100 nM | – | 100 to 1000 nM | > 1000 nM | 10 to 50% | 100 to 1000 nM
8 | C#Cc1cccc2cc(O)cc(-c3ncc4c(N5CC6CCC(C5)N6)nc(OCC5(CN6CCN(CC7CCN(CCC(=O)N[C@@H](C(=O)N8C[C@@H](O)C[C@@H]8C(=O)NCc8ccc(-c9scnc9C)cc8)C(C)(C)C)CC7)CC6)CC5)nc4c3F)c12 [Compound 83] | < 100 nM | – | > 1000 nM | > 1000 nM | 10 to 50% | > 1000 nM
9 | C#Cc1c(F)ccc2cc(O)cc(-c3nc(OC)c4c(N5CC6CCC(C5)N6C(=O)C(F)(F)F)nc(OCC5(CN6CCN(CC7CCN(c8ccc9c(c8)CN(C8CCC(=O)NC8=O)C9=O)CC7)CC6)CC5)nc4c3F)c12 (stereo not drawn) [Compound 93] | < 100 nM | – | > 1000 nM | 100 to 1000 nM | 10 to 50% | 100 to 1000 nM
10 | C#Cc1cccc2cc(O)cc(-c3ncc4c(N5CC6CCC(C5)N6)nc(OCC5(CN6CCN(CC7CCN(c8ccc(NC9CCC(=O)NC9=O)cc8)CC7)CC6)CC5)nc4c3F)c12 (stereo not drawn) [Compound 95] | < 100 nM | – | 100 to 1000 nM | > 1000 nM | < 10% | 100 to 1000 nM
11 | C#Cc1cccc2cc(O)cc(-c3ncc4c(N5CC6CCC(C5)N6)nc(OCC5(CN6CCN(CC7CCN(c8ccc9c(c8)CN(C8CCC(=O)NC8=O)C9=O)CC7)[C@@H](C7CC7)C6)CC5)nc4c3F)c12 (stereo partly drawn) [Compound 96] | < 100 nM | – | 100 to 1000 nM | > 1000 nM | 10 to 50% | < 100 nM
12 | C=CC(=O)N1CCN(c2nc(OCC3(CN4CCN(CC5CCN(c6ccc7c(c6)CN(C6CCC(=O)NC6=O)C7=O)CC5)CC4)CC3)nc3c2CCN(c2cccc4cccc(Cl)c24)C3)C[C@@H]1CC#N (stereo partly drawn) [Compound 98] | > 1000 nM | – | > 1000 nM | > 1000 nM | < 10% | > 1000 nM
13 | C#Cc1c(F)ccc2cc(O)cc(-c3ncc4c(N5CC6CCC(C5)N6)nc(OCC5(CN6CCC(CN7CCN(c8ccc9c(c8)CN(C8CCC(=O)NC8=O)C9=O)CC7)CC6)CC5)nc4c3F)c12 (stereo not drawn) [Compound 99] | < 100 nM | – | > 1000 nM | < 100 nM | > 50% | < 100 nM
14 | C#Cc1c(F)ccc2cc(O)cc(-c3nc(OC)c4c(N5CC6CCC(C5)N6)nc(OCC5(CN6CCN(CC7CCN(c8ccc9c(c8)CN(C8CCC(=O)NC8=O)C9=O)CC7)CC6)CC5)nc4c3F)c12 (stereo not drawn) [Compound 100] | < 100 nM | – | 100 to 1000 nM | > 1000 nM | 10 to 50% | < 100 nM
15 | C#Cc1c(F)ccc2cc(O)cc(-c3ncc4c(N5CC6CCC(C5)N6)nc(OCC5(CN6CCC(C7CCN(c8ccc9c(c8)CN(C8CCC(=O)NC8=O)C9=O)CC7)CC6)CC5)nc4c3F)c12 (stereo not drawn) [Compound 102] | < 100 nM | – | 100 to 1000 nM | 100 to 1000 nM | 10 to 50% | < 100 nM
16 | C#Cc1c(F)ccc2cc(O)cc(-c3ncc4c(N5CC6CCC(C5)N6)nc(OCC5(CN6CCN(CC7CN(c8ccc9c(c8)CN(C8CCC(=O)NC8=O)C9=O)C7)CC6)CC5)nc4c3F)c12 (stereo not drawn) [Compound 103] | < 100 nM | – | > 1000 nM | > 1000 nM | 10 to 50% | 100 to 1000 nM
